From patent publication US20030199431A1, “Modified peptide nucleic acid (PNA) molecules” (priority 1999, published 2003)

Key:
E. coli K12 = assay: Bacterial growth inhibition with PNA 249 (without peptide, FtsZ) and peptide 250, 100% Mueller-Hinton broth (Table 18); assay type: cell-based, Escherichia coli; conditions: for Growth inhibition effect: low concentration end
test culture = assay type: cell-based; conditions: 37° C., 16 hours

Substance | Peptide concentration at which the peptide alone may show growth inhibition effect (E. coli K12) | Growth inhibition effect (E. coli K12) | Growth inhibition (test culture)
H-CG-KLAKALKKLL-NH2 (H-CGKLAKALKKLL-NH2) [PNA 250, peptide alone, also used for PNA 174] | above 2500 nM | neither 249 nor 250 alone nor 249 and 250 together show any useful effect | –
H-KFFKFFKFFK-ado-TGA CTA GAT GAG-NH2 [PNA 136] | – | – | No growth inhibition was detected
H-ado-TTC AAA CAT AGT-NH2 [PNA 249] | – | neither 249 nor 250 alone nor 249 and 250 together show any useful effect | –
